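The compound was tested at five concentrations on cells cultured in 96-well plates, with a 48-hour exposure period. GI50 = concentration required for 50% inhibition of growth.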 Active and inactive are the calls of the source. Cut-off read from the data, not from the text of the source: active = GI50 up to about 1.1 µM and inactive = higher.
Legend:
Assay in all cases: NCI tumour cell line growth inhibition, 48 h
NCI/ADR-RES = system: NCI/ADR-RES
COLO 205 = system: COLO 205
SNB-75 = system: SNB-75
NCI-H460 = system: NCI-H460
K562 = system: K562
UACC-257 = system: UACC-257
SW-620 = system: SW-620
UO-31 = system: UO-31
ACHN = system: ACHN
MOLT-4 = system: MOLT-4
SK-MEL-2 = system: SK-MEL-2
BT-549 = system: BT-549
IGROV-1 = system: IGROV-1
SNB-19 = system: SNB-19
HOP-62 = system: HOP-62
OVCAR-3 = system: OVCAR-3
NCI-H226 = system: NCI-H226
OVCAR-4 = system: OVCAR-4
OVCAR-8 = system: OVCAR-8
HCT-116 = system: HCT-116
MCF7 = system: MCF7
A498 = system: A498
NCI-H23 = system: NCI-H23
OVCAR-5 = system: OVCAR-5
M14 = system: M14
U-251 = system: U-251
Hs-578T = system: Hs-578T
Malme-3M = system: Malme-3M
EKVX = system: EKVX
SK-OV-3 = system: SK-OV-3
HOP-92 = system: HOP-92
T47D = system: T47D
RPMI-8226 = system: RPMI-8226
SN12C = system: SN12C
SF-295 = system: SF-295
RXF 393 = system: RXF 393
HT-29 = system: HT-29
786-0 = system: 786-0
SK-MEL-5 = system: SK-MEL-5
DU-145 = system: DU-145
CCRF-CEM = system: CCRF-CEM
TK-10 = system: TK-10
PC-3 = system: PC-3
KM12 = system: KM12
A549 = system: A549
SF-268 = system: SF-268
LOX IMVI = system: LOX IMVI
HCT-15 = system: HCT-15
HCC 2998 = system: HCC 2998
SF-539 = system: SF-539
CAKI-1 = system: CAKI-1
HL-60 = system: HL-60
SK-MEL-28 = system: SK-MEL-28
NCI-H522 = system: NCI-H522
MDA-N = system: MDA-N
UACC-62 = system: UACC-62
SR = system: SR
MDA-MB-435 = system: MDA-MB-435
MDA-MB-231 = system: MDA-MB-231

Measured: GI50

CC1(C)CC(=O)c2c(nc(SSc3nc4c(c(-c5ccccc5)c3C#N)C(=O)CC(C)(C)C4)c(C#N)c2-c2ccccc2)C1
inactive: NCI/ADR-RES > 10 µM | COLO 205 > 10 µM | SNB-75 > 10 µM | NCI-H460 > 10 µM | K562 > 10 µM | UACC-257 > 10 µM | SW-620 > 10 µM | UO-31 > 10 µM | ACHN > 10 µM | MOLT-4 > 10 µM | SK-MEL-2 > 10 µM | BT-549 > 10 µM | IGROV-1 > 10 µM | SNB-19 > 10 µM | HOP-62 > 10 µM | OVCAR-3 > 10 µM | NCI-H226 > 10 µM | OVCAR-4 > 10 µM | OVCAR-8 > 10 µM | HCT-116 > 10 µM | MCF7 > 10 µM | A498 > 10 µM | NCI-H23 > 10 µM | OVCAR-5 > 10 µM | M14 > 10 µM | U-251 > 10 µM | Hs-578T > 10 µM | Malme-3M > 10 µM | EKVX > 10 µM | SK-OV-3 > 10 µM | HOP-92 > 10 µM | T47D > 10 µM | RPMI-8226 > 10 µM | SN12C > 10 µM | SF-295 > 10 µM | RXF 393 > 10 µM | HT-29 > 10 µM | 786-0 > 10 µM | SK-MEL-5 > 10 µM | DU-145 > 10 µM | CCRF-CEM > 10 µM | TK-10 > 10 µM | PC-3 > 10 µM | KM12 > 10 µM | A549 > 10 µM | SF-268 > 10 µM | LOX IMVI > 10 µM | HCC 2998 > 10 µM | SF-539 > 10 µM | CAKI-1 > 10 µM | HL-60 > 10 µM | SK-MEL-28 > 10 µM | NCI-H522 > 10 µM
> 10 µM: HCT-15

COc1ccc(C)cc1Nc1nnc(-c2ccc(N)cc2)s1
inactive: NCI/ADR-RES > 100 µM | COLO 205 80.5 µM | SNB-75 > 100 µM | NCI-H460 61.8 µM | K562 35.8 µM | UACC-257 81.1 µM | MDA-N 30.4 µM | SW-620 88.1 µM | UO-31 42 µM | ACHN > 100 µM | MOLT-4 35.3 µM | UACC-62 > 100 µM | SK-MEL-2 63.1 µM | BT-549 > 100 µM | IGROV-1 > 100 µM | SNB-19 > 100 µM | HOP-62 51.8 µM | OVCAR-3 73.6 µM | SR 38.4 µM | NCI-H226 44.9 µM | OVCAR-4 > 100 µM | OVCAR-8 87.3 µM | HCT-116 49.4 µM | MCF7 46.3 µM | A498 > 100 µM | NCI-H23 88.1 µM | OVCAR-5 68.7 µM | M14 > 100 µM | Hs-578T > 100 µM | Malme-3M > 100 µM | EKVX 2.65 µM | SK-OV-3 > 100 µM | HOP-92 > 100 µM | T47D 36.1 µM | RPMI-8226 31.5 µM | SN12C > 100 µM | SF-295 43.4 µM | RXF 393 62.4 µM | HT-29 48.3 µM | 786-0 70.1 µM | SK-MEL-5 24.5 µM | DU-145 > 100 µM | CCRF-CEM 41 µM | PC-3 96.4 µM | KM12 46.2 µM | A549 7.53 µM | SF-268 > 100 µM | LOX IMVI 39.4 µM | HCC 2998 44.7 µM | SF-539 > 100 µM | MDA-MB-435 33.3 µM | CAKI-1 73.3 µM | HL-60 32.7 µM | SK-MEL-28 > 100 µM | NCI-H522 60.3 µM
69.2 µM: HCT-15

O=C1c2ccc3ccccc3c2CCC1N1CCCCC1 (stereo unspecified)
inactive: NCI/ADR-RES 20.7 µM | COLO 205 19.5 µM | SNB-75 17.4 µM | NCI-H460 22 µM | K562 17.6 µM | UACC-257 20.7 µM | SW-620 17.6 µM | UO-31 15.6 µM | ACHN 17.7 µM | UACC-62 16.7 µM | SK-MEL-2 19.6 µM | BT-549 23.3 µM | IGROV-1 15.2 µM | SNB-19 19.7 µM | HOP-62 18.7 µM | OVCAR-3 15.4 µM | SR 15.1 µM | NCI-H226 15.8 µM | OVCAR-4 16.6 µM | OVCAR-8 20.7 µM | HCT-116 17.8 µM | MCF7 33.3 µM | NCI-H23 19.7 µM | OVCAR-5 19.7 µM | U-251 18.9 µM | Hs-578T 20.3 µM | Malme-3M 17.6 µM | EKVX 22.4 µM | SK-OV-3 22 µM | HOP-92 16.6 µM | T47D 21.2 µM | SN12C 15.6 µM | SF-295 19.3 µM | MDA-MB-231 16.9 µM | RXF 393 20.6 µM | HT-29 20.5 µM | 786-0 18 µM | SK-MEL-5 17 µM | DU-145 16.7 µM | TK-10 16.1 µM | PC-3 17.4 µM | KM12 17.7 µM | A549 19.5 µM | SF-268 19.1 µM | LOX IMVI 19.2 µM | SF-539 14.6 µM | MDA-MB-435 18 µM | CAKI-1 16 µM | HL-60 21.9 µM | SK-MEL-28 18.1 µM | NCI-H522 16.8 µM
20.2 µM: HCT-15

CCCCOC(=O)C1CC[C@H]2[C@@H]3CCc4cc(OC(=O)c5cccc6c(=O)c7ccccc7[nH]c56)ccc4[C@H]3CC[C@]12C (stereo partly specified)
6.98 µM: HCT-15
inactive: NCI/ADR-RES 11 µM | COLO 205 7.29 µM | SNB-75 10.4 µM | K562 9.98 µM | UACC-257 8.47 µM | MDA-N 7.83 µM | SW-620 12.4 µM | UO-31 8.17 µM | ACHN 8.69 µM | MOLT-4 8.81 µM | UACC-62 6.84 µM | SK-MEL-2 9.91 µM | BT-549 8.17 µM | IGROV-1 8.13 µM | HOP-62 9.35 µM | OVCAR-3 8.47 µM | NCI-H226 11.4 µM | OVCAR-4 7.78 µM | OVCAR-8 10.7 µM | HCT-116 9.31 µM | MCF7 13.3 µM | A498 8.83 µM | NCI-H23 8.95 µM | OVCAR-5 11.3 µM | M14 11.3 µM | U-251 9.79 µM | Hs-578T 12.9 µM | Malme-3M 10.9 µM | EKVX 2.48 µM | SK-OV-3 9.86 µM | HOP-92 8.3 µM | T47D 7.33 µM | RPMI-8226 9.06 µM | SN12C 8.45 µM | SF-295 8.53 µM | MDA-MB-231 6.98 µM | RXF 393 9.48 µM | HT-29 10.4 µM | 786-0 9.89 µM | SK-MEL-5 6.46 µM | DU-145 8.17 µM | TK-10 7.96 µM | PC-3 8.71 µM | KM12 9.71 µM | A549 9.35 µM | SF-268 9.44 µM | LOX IMVI 8.83 µM | HCC 2998 8.87 µM | MDA-MB-435 8.63 µM | CAKI-1 7.19 µM | HL-60 5.86 µM | SK-MEL-28 11 µM | NCI-H522 9.64 µM

Source: ChEMBL document CHEMBL1201862, “PubChem BioAssay data set” (2004)
